Holding throughout (test): relative viability (nuclei count vs DMSO), 5 days (fraction); higher = more cells survive
Compound in assay [1]: Cc1ccc(C(=O)Nc2cccc(C(F)(F)F)c2)cc1Nc1cncc(C(N)=O)c1 [ALW-II-49-7] + Nc1nc2[nH]cc(CCc3ccc(C(=O)N[C@@H](CCC(=O)O)C(=O)O)cc3)c2c(=O)[nH]1 [Pemetrexed] (partner 0.2 µM)
The essentials: (§1)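 Values are medians from duplicate plates. Each reflects relative viability, defined as the nuclei count of treated wells over that of vehicle wells. Lung cancer cell lines in 1536-well plates were pin-tool dosed one day after seeding with one drug alone or with a fixed anchor-drug dose plus five library-drug doses (not always all listed) in √10 steps, then fixed, stained and imaged at 4× after 5 days.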

Compound in assay [2]: Cc1nc(Nc2ncc(C(=O)Nc3c(C)cccc3Cl)s2)cc(N2CCN(CCO)CC2)n1 [Dasatinib] + CC(=O)c1c(C)c2cnc(Nc3ccc(N4CCNCC4)cn3)nc2n(C2CCCC2)c1=O [Palbociclib] (partner 0.5 µM)
The method in brief:
as §1

Compound in assay [3]: C1CC1C(=O)NC2=NNC3=C2C=CC(=C3)C4=CC(=CC=C4)C(=O)NC5CC5 [XMD13-2] + Cc1cc(Nc2cc(N3CCN(C)CC3)nc(Sc3ccc(NC(=O)C4CC4)cc3)n2)n[nH]1 [Tozasertib] (partner 0.1 µM)
The essentials: as §1

Compound in assay [4]: C1CC1C(=O)NC2=NNC3=C2C=CC(=C3)C4=CC(=CC=C4)C(=O)NC5CC5 [XMD13-2] + O=C(c1cc(Cc2n[nH]c(=O)c3ccccc23)ccc1F)N1CCN(C(=O)C2CC2)CC1 [Olaparib] (partner 8 µM)
The method in brief: as §1

This passage reports relative viability results from the supplement of paper PMC10307832.

As for UMC-11, the relative viability is 0.856 in assay [1] (first compound 0.08 µM); 0.79 in assay [1] (first compound 0.253 µM); 0.76 in assay [1] (first compound 0.8 µM); 0.803 in assay [1] (first compound 2.53 µM); 0.705 in assay [1] (first compound 8 µM); 0.335 in assay [2] (first compound 0.005 µM). In addition, the relative viability in assay [2] (first compound 0.01581 µM) worked out at 0.278; in assay [2] (first compound 0.05 µM), 0.27; in assay [2] (first compound 0.1581 µM), 0.236; in assay [2] (first compound 0.5 µM) it was 0.188; in assay [3] (first compound 0.05 µM), 0.188; in assay [3] (first compound 0.1581 µM) it was 0.197. The relative viability in assay [3] (first compound 0.5 µM) turned out to be 0.197; in assay [3] (first compound 1.581 µM), 0.204; in assay [3] (first compound 5 µM), 0.192; in assay [4] (first compound 0.05 µM), 0.528; in assay [4] (first compound 0.1581 µM) it was 0.407; in assay [4] (first compound 0.5 µM), 0.39. Further, the relative viability in assay [4] (first compound 1.581 µM) was 0.364; in assay [4] (first compound 5 µM), 0.318.
